Values joined by “and” are separate entries in the source; they are usually repeats but may differ in a detail not shown here. Equal entries are not always repeated.
Tests used:
H526 SCLC tumors = experiment: H526 SCLC xenograft tumor growth; assay type: in vivo, mouse; settings: for Tumor volume: Fig.3a, n=6, individual animals
Text: PO, oral administration; QD, once daily; BID, twice daily. b–d Tumor growth curves for A2780 ovarian tumor (n = 5) (b), TMD8 large B cell lymphoma (n = 6) (c), and B16F10 melanoma (n = 5) (d) bearing mice treated with the indicated compounds once daily for 11-21 days. e, f Tumor growth curves for A375 melanoma (n = 6) (e), and patient-derived xenograft (PDX) of melanoma (n = 5) (f) bearing mice treated with the indicated compounds once daily (5 days on, 2 days off) for 21 days. For d–f, NHWD-870 used is NHWD-870-HCl synthesized using Suzuki coupling route. Data are presented as mean ± SEM in (a, b, d, f) and mean + SEM in (c, e). p values were calculated using two-tailed, unpaired t tests. *p < 0.05; **p < 0.01; ***p < 0.001. Source data are provided as a Source Data file.
4–6 weeks old female BALB/c nude mice were used for most experiments, with the exception of 6–8 weeks old female C57BL/6 mice were used for B16F10 experiments, and 6–8 weeks old male BALB/c nude mice and SD rats were used for pharmacokinetic experiments. All animals were purchased from Shanghai SIPPR-Bk Lab Animal Co., Ltd. All animals were housed under a regimen of 12 h light/12 h dark cycles and specific pathogen-free conditions. 5×10^6 NCI-H526, ES-2, MDA-MB231, A2780, A375, B16F10, and TMD-8 cells (0.1 ml) were injected subcutaneously into female nude mice. The melanoma patient-derived xenograft model was derived from a human melanoma sample (BRAF, NARS and NF1 wild type, and p53 mutant) removed from a patient in Xiangya Hospital. Surgically removed tumor fragments were implanted subcutaneously into female NSG mice. When the tumors grew to ~1000 mm^3, they were harvested and cryopreserved or immediately re-implanted for expansion or experiments. Mouse body weight and tumor sizes were measured every 3 days. Once the tumors grew to 150–200 mm^3, mice were treated with the compounds as described in the Figures. 1 × 10^6 A2780 cells (1 ml) were injected into the abdominal cavity of nude mice. Ascitic volume and tumor weight were measured by an electronic balance. All the procedures were evaluated and approved by the Institutional Animal Care and Use Committee of Central South University and Yale University.

TAMs = experiment: Transwell 2D co-culture of pretreated A2780 cells and TAMs, colonies; assay type: cell-based, mouse
Protocol: CD45^+CD11b^+F4/80^+ TAMs were isolated from peritoneal metastasis of A2780 tumor-bearing mice and cultured in RPMI-1640 supplemented with 10% FBS, 1% penicillin/streptomycin, and 0–50 ng/ml CSF1 (R&D Systems) as indicated according to standard protocols. In the cancer cell-macrophage co-culture experiments, CSF1 was not added. In the transwell (Corning, pore size, 0.4 μm) co-culture experiments, tumor cells were placed into the upper chamber, and TAMs were seeded into the lower chamber. […]
with anti-CD45, CD11b and CD206 followed by FACS analysis. Shown are representative FACS plots (c) and quantification of the percentage of CD11b+CD206+ cells (d). Data are presented as mean ± SEM from 5 different mice. p values were calculated using two-tailed, unpaired t tests. **, p<0.01; ***, p<0.001. […] Quantification of spheroid volumes (f). Data are presented as mean ± SEM from 15 independent experiments. p values were calculated using two-tailed, unpaired t tests. **, p<0.01. […]
CD45+F4/80 +CD11b+CD206+ TAMs were isolated from tumors of ovarian cancer-bearing donor m i c e. Sh o wn are schematics of the experiment (g), representative images (h) and quantification of colonies (i). Data are presented as mean ± SEM from 3 independent experiments. p values were calculated using two-tailed, unpaired t tests. **, p<0.01; ***, p<0.001. […]

Cc1nnn(C)c1-c1cnc2c3c4cnn(C)c4ccc3n([C@H](c3ccccc3)C3CCOCC3)c2c1 [NHWD-870]
Tumor volume (H526 SCLC tumors; 0.75mg/kg p.o. QD x 21D, day 0): 192.244 mm^3 and 263.88 mm^3 and 212.226 mm^3 and 157.172 mm^3 and 251.256 mm^3 and 74.1662 mm^3 | Tumor volume (H526 SCLC tumors; 0.75mg/kg p.o. QD x 21D, day 3): 395.966 mm^3 and 556.678 mm^3 and 654.987 mm^3 and 201.421 mm^3 and 423.505 mm^3 and 90.8277 mm^3 | Tumor volume (H526 SCLC tumors; 0.75mg/kg p.o. QD x 21D, day 7): 723.612 mm^3 and 1124.37 mm^3 and 964.914 mm^3 and 402.947 mm^3 and 655.847 mm^3 and 216.235 mm^3 | Tumor volume (H526 SCLC tumors; 0.75mg/kg p.o. QD x 21D, day 10): 1123.82 mm^3 and 1337.09 mm^3 and 1219.11 mm^3 and 614.795 mm^3 and 939.345 mm^3 and 324.637 mm^3 | Tumor volume (H526 SCLC tumors; 0.75mg/kg p.o. QD x 21D, day 14): 1169.07 mm^3 and 1508.45 mm^3 and 1544.25 mm^3 and 755.744 mm^3 and 1018.31 mm^3 and 369.016 mm^3 | Tumor volume (H526 SCLC tumors; 0.75mg/kg p.o. QD x 21D, day 17): 1563.43 mm^3 and 1842.12 mm^3 and 2108.97 mm^3 and 937.093 mm^3 and 1199.84 mm^3 and 528.17 mm^3 | Tumor volume (H526 SCLC tumors; 0.75mg/kg p.o. QD x 21D, day 20): 1882.72 mm^3 and 1980.4 mm^3 and 2365.8 mm^3 and 1110.57 mm^3 and 1230.51 mm^3 and 727.098 mm^3 | Tumor volume (H526 SCLC tumors; 1.5mg/kg p.o. BID x 21D, day 0): 109.221 mm^3 and 224.83 mm^3 and 299.894 mm^3 | Tumor volume (H526 SCLC tumors; 1.5mg/kg p.o. BID x 21D, day 3): 144.898 mm^3 and 505.755 mm^3 | Tumor volume (H526 SCLC tumors; 1.5mg/kg p.o. BID x 21D, day 7): 197.484 mm^3 and 503.899 mm^3 | Tumor volume (H526 SCLC tumors; 1.5mg/kg p.o. BID x 21D, day 10): 131.255 mm^3 and 391.019 mm^3 | Tumor volume (H526 SCLC tumors; 1.5mg/kg p.o. BID x 21D, day 14): 62.3145 mm^3 and 300.826 mm^3 | Tumor volume (H526 SCLC tumors; 1.5mg/kg p.o. BID x 21D, day 17): 47.429 mm^3 and 191.773 mm^3 | Tumor volume (H526 SCLC tumors; 1.5mg/kg p.o. BID x 21D, day 20): 26.6114 mm^3 and 100.415 mm^3 and 135.956 mm^3 | Tumor volume (H526 SCLC tumors; 1.5mg/kg p.o. QD x 21D, day 0): 70.0321 mm^3 and 190.911 mm^3 and 142.166 mm^3 and 225.589 mm^3 and 289.503 mm^3 and 248.923 mm^3 | Tumor volume (H526 SCLC tumors; 1.5mg/kg p.o. QD x 21D, day 3): 54.6804 mm^3 and 344.715 mm^3 and 214.258 mm^3 and 388.716 mm^3 and 680.326 mm^3 and 337.153 mm^3 | Tumor volume (H526 SCLC tumors; 1.5mg/kg p.o. QD x 21D, day 7): 52.3406 mm^3 and 448.169 mm^3 and 304.6 mm^3 and 593.496 mm^3 and 1004.88 mm^3 and 603.12 mm^3 | Tumor volume (H526 SCLC tumors; 1.5mg/kg p.o. QD x 21D, day 10): 65.7752 mm^3 and 568.076 mm^3 and 360.126 mm^3 and 706.593 mm^3 and 1344.39 mm^3 and 669.797 mm^3 | Tumor volume (H526 SCLC tumors; 1.5mg/kg p.o. QD x 21D, day 14): 53.8674 mm^3 and 610.408 mm^3 and 386.917 mm^3 and 812.577 mm^3 and 1371.12 mm^3 and 772.943 mm^3 | Tumor volume (H526 SCLC tumors; 1.5mg/kg p.o. QD x 21D, day 17): 48.5889 mm^3 and 810.7 mm^3 and 443.445 mm^3 and 889.286 mm^3 and 1654.72 mm^3 and 1027.16 mm^3 | Tumor volume (H526 SCLC tumors; 1.5mg/kg p.o. QD x 21D, day 20): 34.4047 mm^3 and 640.677 mm^3 and 402.424 mm^3 and 852.013 mm^3 and 1472.9 mm^3 and 894.82 mm^3 | effect on tumor growth (H526 SCLC tumors; H526 SCLC, oral, 3 mg/kg per day or 1.5 mg/kg twice per day, 21 days): regressed established H526 SCLC tumors | fold decrease of the growth of TAMs (TAMs; 50 nM, 2D system): about 6 fold | growth of TAMs in 2D co-culture system (TAMs; A2780 pre-treated with 25 or 50 nM for 48h): potently decreased the growth of TAMs in a dose-dependent manner

— paper PMC7156724, “Potent BRD4 inhibitor suppresses cancer cell-macrophage interaction” (Nature Communications, 2020)
